Data: publication PMC3626541, “A first in human, safety, pharmacokinetics, and clinical activity phase I study of once weekly administration of the Hsp90 inhibitor ganetespib (STA-9090) in patients with solid malignancies” (BMC Cancer, 2013)

Test system: patients with advanced solid tumors
Assay: Safety: adverse events (NCI CTCAE v3.0), ECG
Format: in vivo, human
Protocol: Patients’ demographics and medical history were recorded at baseline. Physical examination and PS were assessed at baseline and on Day 1 of each cycle. Adverse events (AEs), vital signs, hematology and chemistry values, and creatinine clearance were assessed at baseline and weekly during treatment. Toxicity was graded using National Cancer Institute Common Terminology Criteria for Adverse Events (NCI CTCAE), version 3.0. An electrocardiogram (ECG) was performed at baseline, before and after treatment on Days 1 and 15 of Cycles 1 and 2, and on Day 15 of even-numbered cycles thereafter. CT scans were done at baseline and every 8 weeks thereafter. Tumor response was assessed using Response Evaluation Criteria in Solid Tumors (RECIST, v1.0), with confirmation of responses performed at least 4 weeks later.

Question: For CC(C)c1cc(-c2n[nH]c(=O)n2-c2ccc3c(ccn3C)c2)c(O)cc1O [Ganetespib, 5-[2,4-dihydroxy-5-(1 methyl-ethyl)phenyl]-2,4 dihydro-4-(1-methyl-1H indol-5 yl)-3H-1,2,4 triazole-3-one], which “Any event, AE of any grade, Number (%) of patients” value (7-114 mg/m^2, n = 25) is on record?
Answer: 25 (100) n (%)

Question: And the “Any event, CTCAE Grade 3 and 4 AE, Number (%) of patients” value (7-114 mg/m^2, n = 25)?
Answer: 17 (68) n (%)

Question: And the “Any event, serious adverse events, Number (%) of patients” value (7-114 mg/m^2, n = 25)?
Answer: 6 (24) n (%)

Question: What about the “Arthralgia, CTCAE Grade 3 and 4 AE, Number (%) of patients” value (7-114 mg/m^2, n = 25) of the same compound?
Answer: 1 (4) n (%)

Question: What about the “Asthenia, AE of any grade, Number (%) of patients” value (7-114 mg/m^2, n = 25) of the same compound?
Answer: 2 (8) n (%)

Question: What about the “Asthenia, CTCAE Grade 3 and 4 AE, Number (%) of patients” value (7-114 mg/m^2, n = 25) of the same compound?
Answer: 1 (4) n (%)

Question: What about the “Asthenia, serious adverse events, Number (%) of patients” value (7-114 mg/m^2, n = 25) of the same compound?
Answer: 0 n (%)

Question: And the “Back pain, AE of any grade, Number (%) of patients” value (7-114 mg/m^2, n = 25)?
Answer: 4 (16) n (%)

Question: What about the “Constipation, AE of any grade, Number (%) of patients” value (7-114 mg/m^2, n = 25) of the same compound?
Answer: 5 (20) n (%)

Question: And the “Decreased appetite, AE of any grade, Number (%) of patients” value (7-114 mg/m^2, n = 25)?
Answer: 2 (8) n (%)

Question: What about the “Dehydration, AE of any grade, Number (%) of patients” value (7-114 mg/m^2, n = 25) of the same compound?
Answer: 1 (4) n (%)

Question: And the “Dehydration, CTCAE Grade 3 and 4 AE, Number (%) of patients” value (7-114 mg/m^2, n = 25)?
Answer: 1 (4) n (%)

Question: What about the “Dehydration, serious adverse events, Number (%) of patients” value (7-114 mg/m^2, n = 25) of the same compound?
Answer: 0 n (%)

Question: And the “Diarrhea, CTCAE Grade 3 and 4 AE, Number (%) of patients” value (7-114 mg/m^2, n = 25)?
Answer: 1 (4) n (%)

Question: What about the “Dizziness, AE of any grade, Number (%) of patients” value (7-114 mg/m^2, n = 25) of the same compound?
Answer: 1 (4) n (%)

Question: What about the “Dry mouth, AE of any grade, Number (%) of patients” value (7-114 mg/m^2, n = 25) of the same compound?
Answer: 2 (8) n (%)

Question: And the “Dyspnea, AE of any grade, Number (%) of patients” value (7-114 mg/m^2, n = 25)?
Answer: 4 (16) n (%)

Question: What about the “Extremity pain, AE of any grade, Number (%) of patients” value (7-114 mg/m^2, n = 25) of the same compound?
Answer: 4 (16) n (%)

Question: What about the “Fatigue, AE of any grade, Number (%) of patients” value (7-114 mg/m^2, n = 25) of the same compound?
Answer: 12 (48) n (%)

Question: What about the “Fatigue, CTCAE Grade 3 and 4 AE, Number (%) of patients” value (7-114 mg/m^2, n = 25) of the same compound?
Answer: 1 (4) n (%)

Question: What about the “Headache, AE of any grade, Number (%) of patients” value (7-114 mg/m^2, n = 25) of the same compound?
Answer: 2 (8) n (%)

Question: What about the “Hyperbilirubinemia, CTCAE Grade 3 and 4 AE, Number (%) of patients” value (7-114 mg/m^2, n = 25) of the same compound?
Answer: 1 (4) n (%)

Question: What about the “Hypokalemia, AE of any grade, Number (%) of patients” value (7-114 mg/m^2, n = 25) of the same compound?
Answer: 2 (8) n (%)

Question: And the “Hypokalemia, CTCAE Grade 3 and 4 AE, Number (%) of patients” value (7-114 mg/m^2, n = 25)?
Answer: 0 n (%)

Question: What about the “Hyponatremia, CTCAE Grade 3 and 4 AE, Number (%) of patients” value (7-114 mg/m^2, n = 25) of the same compound?
Answer: 3 (12) n (%)

Question: And the “Hypophosphatemia, AE of any grade, Number (%) of patients” value (7-114 mg/m^2, n = 25)?
Answer: 5 (20) n (%)

Question: And the “Hypophosphatemia, CTCAE Grade 3 and 4 AE, Number (%) of patients” value (7-114 mg/m^2, n = 25)?
Answer: 2 (8) n (%)

Question: What about the “Insomnia, AE of any grade, Number (%) of patients” value (7-114 mg/m^2, n = 25) of the same compound?
Answer: 2 (8) n (%)

Question: And the “Musculoskeletal chest pain, AE of any grade, Number (%) of patients” value (7-114 mg/m^2, n = 25)?
Answer: 2 (8) n (%)

Question: What about the “Nausea, AE of any grade, Number (%) of patients” value (7-114 mg/m^2, n = 25) of the same compound?
Answer: 7 (28) n (%)

Question: What about the “Peripheral edema, AE of any grade, Number (%) of patients” value (7-114 mg/m^2, n = 25) of the same compound?
Answer: 3 (12) n (%)

Question: And the “Pneumonia, serious adverse events, Number (%) of patients” value (7-114 mg/m^2, n = 25)?
Answer: 0 n (%)

Question: What about the “Rash, AE of any grade, Number (%) of patients” value (7-114 mg/m^2, n = 25) of the same compound?
Answer: 4 (16) n (%)

Question: And the “Serum amylase elevated, CTCAE Grade 3 and 4 AE, Number (%) of patients” value (7-114 mg/m^2, n = 25)?
Answer: 1 (4) n (%)

Question: What about the “Spinal cord compression, CTCAE Grade 3 and 4 AE, Number (%) of patients” value (7-114 mg/m^2, n = 25) of the same compound?
Answer: 2 (8) n (%)

Question: And the “Urinary tract infection, AE of any grade, Number (%) of patients” value (7-114 mg/m^2, n = 25)?
Answer: 2 (8) n (%)

Question: What about the “Vomiting, AE of any grade, Number (%) of patients” value (7-114 mg/m^2, n = 25) of the same compound?
Answer: 4 (16) n (%)

Question: And the “Weight decreased, AE of any grade, Number (%) of patients” value (7-114 mg/m^2, n = 25)?
Answer: 1 (4) n (%)

Question: What about the “ALT elevated, AE of any grade, Number (%) of patients” value (7-114 mg/m^2, n = 25, first of two ALT elevated lines) of the same compound?
Answer: 5 (20) n (%)

Question: What about the “ALT elevated, AE of any grade, Number (%) of patients” value (7-114 mg/m^2, n = 25, second of two ALT elevated lines) of the same compound?
Answer: 3 (12) n (%)

Question: What about the Incidence of diarrhea (7–114 mg/m^2 dose levels) of the same compound?
Answer: 80%

Question: What about the Incidence of fatigue (7–114 mg/m^2 dose levels) of the same compound?
Answer: 48%

Question: And the “ALT elevation, CTCAE Grade 3 and 4 AE, Number (%) of patients” value (150-216 mg/m^2, n = 22)?
Answer: 1 (4.5) n (%)

Question: And the “AST elevated, AE of any grade, Number (%) of patients” value (150-216 mg/m^2, n = 22)?
Answer: 4 (18.2) n (%)

Question: What about the “Abdominal distension, AE of any grade, Number (%) of patients” value (150-216 mg/m^2, n = 22) of the same compound?
Answer: 3 (13.6) n (%)

Question: And the “Abdominal pain, AE of any grade, Number (%) of patients” value (150-216 mg/m^2, n = 22)?
Answer: 10 (45.5) n (%)

Question: What about the “Abdominal pain, serious adverse events, Number (%) of patients” value (150-216 mg/m^2, n = 22) of the same compound?
Answer: 1 (4.5) n (%)

Question: What about the “Anemia, AE of any grade, Number (%) of patients” value (150-216 mg/m^2, n = 22) of the same compound?
Answer: 5 (22.7) n (%)

Question: And the “Any event, AE of any grade, Number (%) of patients” value (150-216 mg/m^2, n = 22)?
Answer: 22 (100) n (%)

Question: And the “Any event, CTCAE Grade 3 and 4 AE, Number (%) of patients” value (150-216 mg/m^2, n = 22)?
Answer: 14 (63.6) n (%)

Question: And the “Any event, serious adverse events, Number (%) of patients” value (150-216 mg/m^2, n = 22)?
Answer: 6 (27.3) n (%)

Question: And the “Arthralgia, CTCAE Grade 3 and 4 AE, Number (%) of patients” value (150-216 mg/m^2, n = 22)?
Answer: 0 n (%)

Question: And the “Asthenia, AE of any grade, Number (%) of patients” value (150-216 mg/m^2, n = 22)?
Answer: 4 (18.2) n (%)

Question: What about the “Asthenia, CTCAE Grade 3 and 4 AE, Number (%) of patients” value (150-216 mg/m^2, n = 22) of the same compound?
Answer: 1 (4.5) n (%)

Question: What about the “Asthenia, serious adverse events, Number (%) of patients” value (150-216 mg/m^2, n = 22) of the same compound?
Answer: 1 (4.5) n (%)

Question: What about the “Back pain, AE of any grade, Number (%) of patients” value (150-216 mg/m^2, n = 22) of the same compound?
Answer: 2 (9.1) n (%)
